Experimental findings from PubChem BioAssay AID330 (DTP/NCI, 2004) are described below.

For this test, the system named is P388 leukemia ip, CD2F1 mice, survival T/C. Nature of the test: NCI In Vivo Anticancer Drug Screen. Data for tumor model P388 Leukemia (intraperitoneal) in CD2F1 (CDF1) mice. The following applies: endpoint: median survival time, higher = longer survival. The gist of the method: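 Mice carrying the transplanted tumor received test compound or vehicle. Survival was recorded in each group, and the value is the treated-group measurement divided by that of the vehicle-treated control group.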

The mark [1] stands for this setting: dose: 200.0 mg/kg/injection, schedule: Q04DX003 (ip), vehicle: saline with Tween-80.
[2] abbreviates: dose: 60.0 mg/kg/injection, schedule: Q01DX005 (ip), vehicle: Klucel (hydroxypropylcellulose) (HPC).
[3] abbreviates: dose: 120.0 mg/kg/injection, schedule: Q01DX005 (ip), vehicle: Klucel (hydroxypropylcellulose) (HPC).
Setting [4] is: dose: 5.0 mg/kg/injection, schedule: Q01DX009 (ip), vehicle: saline with Tween-80.
Setting [5] is: dose: 10.0 mg/kg/injection, schedule: Q01DX009 (ip), vehicle: saline with Tween-80.
The mark [6] stands for this setting: dose: 20.0 mg/kg/injection, schedule: Q01DX009 (ip), vehicle: saline with Tween-80.
[7] abbreviates: dose: 50.0 mg/kg/injection, schedule: Q01DX005 (ip), vehicle: Klucel (hydroxypropylcellulose) (HPC).
[8] abbreviates: dose: 100.0 mg/kg/injection, schedule: Q01DX005 (ip), vehicle: Klucel (hydroxypropylcellulose) (HPC).
Where [9] appears, read: dose: 200.0 mg/kg/injection, schedule: Q01DX005 (ip), vehicle: Klucel (hydroxypropylcellulose) (HPC).
The mark [10] stands for this setting: dose: 60.0 mg/kg/injection, schedule: Q01DX005 (ip), vehicle: saline with Tween-80.
[11] abbreviates: dose: 120.0 mg/kg/injection, schedule: Q01DX005 (ip), vehicle: saline with Tween-80.
[12] abbreviates: dose: 240.0 mg/kg/injection, schedule: Q01DX005 (ip), vehicle: saline with Tween-80.
Where [13] appears, read: dose: 100.0 mg/kg/injection, schedule: Q04DX003 (ip), vehicle: saline with Tween-80.
Where [14] appears, read: dose: 400.0 mg/kg/injection, schedule: Q04DX003 (ip), vehicle: saline with Tween-80.
Where [15] appears, read: dose: 50.0 mg/kg/injection, schedule: Q01DX009 (ip), vehicle: saline with Tween-80.
Setting [16] is: dose: 100.0 mg/kg/injection, schedule: Q01DX009 (ip), vehicle: saline with Tween-80.
The mark [17] stands for this setting: dose: 200.0 mg/kg/injection, schedule: Q01DX009 (ip), vehicle: saline with Tween-80.
Where [18] appears, read: dose: 6.25 mg/kg/injection, schedule: Q01DX005 (ip), vehicle: Klucel (hydroxypropylcellulose) (HPC).
Where [19] appears, read: dose: 12.5 mg/kg/injection, schedule: Q01DX005 (ip), vehicle: Klucel (hydroxypropylcellulose) (HPC).
[20] abbreviates: dose: 25.0 mg/kg/injection, schedule: Q01DX005 (ip), vehicle: Klucel (hydroxypropylcellulose) (HPC).

Several values for one entry are separate records, joined by “and”; a condition that tells them apart may be missing. Identical values can stand only once. Toxic doses and inconclusive results are not listed.

Turning to `O=C(O)/C(O)=C/c1ccccc1`, the T/C (dose: 25.0 mg/kg/injection, schedule: Q04DX003 (ip), vehicle: saline with Tween-80) was 102 % of control and the T/C under setting [1] is 111 % of control.

As for `CCCN(CCC)/N=C/c1c2c(O)c3c(O)c(C)c4c(c3c1O)C(=O)C(C)(O/C=C/C(OC)C(C)C(OC(C)=O)C(C)C(O)C(C)C(O)C(C)/C=C/C=C(C)C(=O)N2)O4` (stereo not given), the T/C is 110 % of control under setting [2] and 122 % of control under setting [3].

Consider `CC(C)(Br)C(=O)NN=C(c1ccccc1)c1ccccc1`, for which the T/C (dose: 50.0 mg/kg/injection, schedule: Q01DX009 (ip), vehicle: saline) is 100 % of control; the T/C (dose: 100.0 mg/kg/injection, schedule: Q01DX009 (ip), vehicle: saline) is 100 % of control; the T/C (dose: 200.0 mg/kg/injection, schedule: Q01DX009 (ip), vehicle: saline) is 100 % of control.

Take `NC1CCCCCCC1O` (stereo not given): the T/C is 104 % of control under setting [4]; 104 % of control (dose: 5.0 mg/kg/injection, schedule: Q04DX003 (ip), vehicle: saline); 100 % of control under setting [5]; 100 % of control (dose: 10.0 mg/kg/injection, schedule: Q04DX003 (ip), vehicle: saline); 104 % of control under setting [6]; 100 % of control (dose: 20.0 mg/kg/injection, schedule: Q04DX003 (ip), vehicle: saline).

Turning to `CCOc1nc(N)nc(C)c1N=Nc1ccccc1OC`, the T/C was 103 % of control under setting [2]; 100 % of control under setting [3]; 100 % of control (dose: 240.0 mg/kg/injection, schedule: Q01DX005 (ip), vehicle: Klucel (hydroxypropylcellulose) (HPC)).

In the case of `COc1c(O)c(O)c2c(c1O)C(=O)c1cc(C)cc(O)c1C2=O`, the T/C was 99 % of control under setting [4], 103 % of control under setting [5] and 105 % of control under setting [6].

With `CC(=O)Nc1c(O)c2ccccc2c2ccccc12`, the T/C under setting [7] was 87 % of control, the T/C under setting [8] is 92 % of control and the T/C under setting [9] is 86 % of control.

On to `COC(=O)C1CC(I)C2OC(=O)C1C2C(=O)OC` (stereo not given), for which the T/C was 91 % of control under setting [10], 99 % of control under setting [11] and 97 % of control under setting [12].

Take `CC(=O)Nc1ccc(/C=C2/C(=O)ON=C2C)cc1`: the T/C was 116 % of control under setting [10] and 116 % of control under setting [11].

On to `CN(N=O)P(=O)(Nc1ccccc1)Nc1ccccc1`, for which the T/C is 100 % of control (dose: 6.25 mg/kg/injection, schedule: Q01DX009 (ip), vehicle: other); 100 % of control (dose: 25.0 mg/kg/injection, schedule: Q01DX009 (ip), vehicle: other); 100 % of control (dose: 50.0 mg/kg/injection, schedule: Q01DX009 (ip), vehicle: other).

Turning to `COc1cc2c(c(OC)c1OC)-c1ccc(OC)c(=O)cc1C(NC(=O)CO)CC2` (stereo not given), the T/C is 104 % of control and 111 % of control (dose: 0.16 mg/kg/injection, schedule: Q01DX009 (ip), vehicle: Klucel (hydroxypropylcellulose) (HPC)); 153 % of control and 157 % of control (dose: 0.62 mg/kg/injection, schedule: Q01DX009 (ip), vehicle: Klucel (hydroxypropylcellulose) (HPC)).

With `c1ccc([P+](CC[P+](c2ccccc2)(c2ccccc2)c2ccccc2)(c2ccccc2)c2ccccc2)cc1`, the T/C was 105 % of control (dose: 0.78 mg/kg/injection, schedule: Q01DX009 (ip), vehicle: saline) and 103 % of control (dose: 1.56 mg/kg/injection, schedule: Q01DX009 (ip), vehicle: saline).

With `O=C(Nc1cc(-c2ccccc2)[nH]n1)c1ccccc1F`, the T/C (dose: 30.0 mg/kg/injection, schedule: Q01DX005 (ip), vehicle: saline with Tween-80) is 97 % of control; the T/C under setting [10] is 97 % of control; the T/C under setting [11] was 97 % of control; the T/C under setting [12] was 90 % of control.

With `COc1c2occc2c(N=Cc2ccncc2)c2ccc(=O)oc12`, the T/C is, setting by setting: (dose: 100.0 mg/kg/injection, schedule: Q01DX001 (ip), vehicle: saline with Tween-80) 88 % of control; (dose: 200.0 mg/kg/injection, schedule: Q01DX001 (ip), vehicle: saline with Tween-80) 90 % of control; (dose: 400.0 mg/kg/injection, schedule: Q01DX001 (ip), vehicle: saline with Tween-80) 96 % of control.

As for `O=C(C(=S)c1ccccc1)N(Cc1ccccc1)Cc1ccccc1`, the T/C was 108 % of control under setting [13], 103 % of control under setting [1] and 103 % of control under setting [14].

For the compound `COc1cc(CCN=Cc2cc(Cl)cc(Cl)c2O)c([N+](=O)[O-])cc1OC`, the T/C is, setting by setting: under setting [7], 93 % of control; under setting [8], 102 % of control; under setting [9], 111 % of control.

As for `C=C1C(=O)C23CC1CC(O)C2C12COC(O)C1C(C)(C)CCC2OC3=O` (stereo not given), the T/C was 108 % of control (dose: 1.25 mg/kg/injection, schedule: Q01DX009 (ip), vehicle: saline with Tween-80); 99 % of control (dose: 2.5 mg/kg/injection, schedule: Q01DX009 (ip), vehicle: saline with Tween-80); 102 % of control and 120 % of control under setting [4]; 106 % of control and 115 % of control under setting [5]; 116 % of control and 118 % of control under setting [6]; 118 % of control and 124 % of control (dose: 40.0 mg/kg/injection, schedule: Q01DX009 (ip), vehicle: saline with Tween-80). Besides, the T/C (dose: 80.0 mg/kg/injection, schedule: Q01DX009 (ip), vehicle: saline with Tween-80) is 89 % of control.

For `O=C(O)Cc1c[nH]c2cc(Cl)ccc12`, the T/C reads like this: under setting [15], 100 % of control; under setting [16], 102 % of control; under setting [17], 105 % of control.

Consider `CSC(=S)N(C)N`, for which the T/C by setting is: under setting [13], 111 % of control; under setting [1], 105 % of control; under setting [14], 100 % of control.

`CCn1c(=O)c2n[nH]nc2n(CCO)c1=O`: the T/C runs as follows: (dose: 50.0 mg/kg/injection, schedule: Q01DX009 (ip), vehicle: Klucel (hydroxypropylcellulose) (HPC)) 97 % of control; (dose: 100.0 mg/kg/injection, schedule: Q01DX009 (ip), vehicle: Klucel (hydroxypropylcellulose) (HPC)) 100 % of control.

As for `O=C1N(Cl)C2(c3ccccc3)N(Cl)C(=O)N(Cl)C2(c2ccccc2)N1Cl` (stereo not given), the T/C by setting is: (dose: 25.0 mg/kg/injection, schedule: Q04DX003 (ip), vehicle: Klucel (hydroxypropylcellulose) (HPC)) 103 % of control; (dose: 50.0 mg/kg/injection, schedule: Q04DX003 (ip), vehicle: Klucel (hydroxypropylcellulose) (HPC)) 110 % of control.

For the compound `CC(N1CCS(=O)(=O)CC1)P(=O)(O)O` (stereo not given), the T/C is, setting by setting: (dose: 50.0 mg/kg/injection, schedule: Q01DX005 (ip), vehicle: saline with Tween-80) 90 % of control; (dose: 100.0 mg/kg/injection, schedule: Q01DX005 (ip), vehicle: saline with Tween-80) 99 % of control; (dose: 200.0 mg/kg/injection, schedule: Q01DX005 (ip), vehicle: saline with Tween-80) 100 % of control.

As to `O=C(Nc1ccc(Cl)cc1)Nc1nnc(/C=C/c2ccccc2)o1`, the T/C reads like this: under setting [10], 96 % of control; under setting [11], 96 % of control.

For the compound `N=C(N)c1ccc(N=Nc2ccc(O)c3c2ccc[n+]3[O-])cc1`, the T/C runs as follows: (dose: 3.13 mg/kg/injection, schedule: Q01DX005 (ip), vehicle: Klucel (hydroxypropylcellulose) (HPC)) 106 % of control; under setting [18], 97 % of control; under setting [19], 106 % of control; under setting [20], 109 % of control and 110 % of control and 117 % of control; under setting [7], 117 % of control; under setting [8], 103 % of control and 123 % of control. Also, under setting [9], the T/C is 110 % of control.

As for `Nc1nc(Sc2ccccn2)ccc1[N+](=O)[O-]`, the T/C reads like this: under setting [15], 91 % of control; under setting [16], 91 % of control; under setting [17], 102 % of control.

Turning to `COc1cc(NN=C(C#N)C#N)c(OC)cc1Cl`, the T/C is, setting by setting: under setting [18], 102 % of control; under setting [19], 107 % of control; under setting [20], 107 % of control.

Consider `Nc1ccc(S(=O)O)cc1`, for which the T/C runs as follows: under setting [13], 100 % of control; under setting [1], 100 % of control; under setting [14], 100 % of control.
